Like-named read-outs stand apart in the source and are kept apart here.
Legend:
Format in all cases: cell-based
[1] = system: PLC/PRF/5 (human liver cancer); assay: cells; conditions: for PLC/PRF/5 SI: selectivity coefficient vs normal BALB/3T3 cells; for SI PLC/PRF/5: selectivity coefficient vs normal BALB/3T3 fibroblasts
[2] = system: A375 (human melanoma); assay: In vitro cytotoxicity, SRB assay, A375; conditions: for IC50: Homo sapiens, A-375, 72 h with compound, SRB, n/a = non-active compound, read-out: A375 IC50; for A375 SI: selectivity coefficient vs normal BALB/3T3 cells
[3] = system: KG-1 (human acute myeloid leukaemia); assay: In vitro cytotoxicity, MTT assay, KG-1; conditions: for IC50: Homo sapiens, 72 h with compound, MTT, n/a = non-active compound; for KG-1 SI: selectivity coefficient vs normal BALB/3T3 cells
[4] = system: Hs294T (human melanoma); assay: cells; conditions: for IC50: Hs 294T; for Hs294T SI: selectivity coefficient vs normal BALB/3T3 cells; for SI Hs294T: selectivity coefficient vs normal BALB/3T3 fibroblasts
[5] = system: MIA PaCa-2 (human pancreatic cancer); assay: cells; conditions: for MIA PaCa-2 SI: selectivity coefficient vs normal BALB/3T3 cells; for SI MIA PaCa-2: selectivity coefficient vs normal BALB/3T3 fibroblasts
[6] = system: SNU-16 (human gastric cancer); assay: cells; conditions: for SNU-16 SI: selectivity coefficient vs normal BALB/3T3 cells; for SI SNU-16: selectivity coefficient vs normal BALB/3T3 fibroblasts
[7] = system: BALB/3T3 (normal mouse fibroblasts); assay: In vitro cytotoxicity, SRB assay, normal BALB/3T3 fibroblasts
[8] = system: NCI-H23 (human lung cancer); assay: In vitro cytotoxicity, SRB assay, NCI-H23; conditions: for IC50: Homo sapiens, NCI-H23, 72 h with compound, SRB, n/a = non-active compound, read-out: NCI-H23 IC50; for NCI-H23 SI: selectivity coefficient vs normal BALB/3T3 cells
[9] = system: A2780 (human ovarian cancer); assay: In vitro cytotoxicity, SRB assay, A2780; conditions: for IC50: Homo sapiens, A2780, 72 h with compound, SRB, n/a = non-active compound, read-out: A2780 IC50; for A2780 SI: selectivity coefficient vs normal BALB/3T3 cells
[10] = system: A2780Cis (cisplatin-resistant human ovarian cancer); assay: In vitro cytotoxicity, SRB assay, A2780Cis; conditions: for IC50: Homo sapiens, A2780cis
[11] = system: PFSK-1 (malignant primitive neuroectodermal tumour); assay: In vitro cytotoxicity, SRB assay, PFSK-1; conditions: for IC50: Homo sapiens, PFSK-1, 72 h with compound, SRB, n/a = non-active compound, read-out: PFSK-1 IC50; for PFSK-1 SI: selectivity coefficient vs normal BALB/3T3 cells
[12] = system: cancer cells; assay: In vitro cytotoxic activity on the panel of cancer cell lines (MTT/SRB), general statements; conditions: for biological properties (IC50, SI) compared to the corresponding epi compounds: table 5 comparative examples, retained vs inverted C20 configuration; for anti-proliferative effect compared to that of the parent compound: Tables 3.1, 3.2, 4 and 5, parent compound salinomycin
[13] = system: NCI-H358 (human lung cancer); assay: cells; conditions: Table 4; for IC50: NCI-H358 human lung cancer cells, read-out: IC50 (nM) NCI-H358; for SI NCI-H358: selectivity coefficient vs normal BALB/3T3 fibroblasts
[14] = system: MV-4-11 (human biphenotypic leukaemia); assay: In vitro cytotoxicity, MTT assay, MV-4-11; conditions: for IC50: Homo sapiens, MV4-11, read-out: IC50 (nM) MV4-11
[15] = Homo sapiens, PLC-PRF-5, 72 h with compound, SRB, n/a = non-active compound, read-out: PLC/PRF/5 IC50
[16] = Homo sapiens, 72 h with compound, SRB, n/a = non-active compound, read-out: Hs294T IC50
[17] = Homo sapiens, MIA PaCa-2, 72 h with compound, SRB, n/a = non-active compound, read-out: MIA PaCa-2 IC50
[18] = Homo sapiens, SNU-16, 72 h with compound, MTT, n/a = non-active compound, read-out: SNU-16 IC50
[19] = Mus musculus, BALB/3T3, normal cells, 72 h with compound, SRB, n/a = non-active compound, read-out: BALB/3T3 IC50
[20] = Table 5, BALB/3T3 normal mouse fibroblasts, read-out: IC50 (nM) BALB3T3 normal cells
[21] = 72 h, read-out: A2780Cis IC50 (nM)
[22] = Table 4, PLC/PRF/5 human liver cancer cells, read-out: IC50 (nM) PLC/PRF/5
[23] = Table 4, Hs294T human melanoma cells, read-out: IC50 (nM) Hs294T
[24] = Table 4, MIA PaCa-2 human pancreatic cancer cells, read-out: IC50 (nM) MIA PaCa-2
[25] = Table 4, SNU-16 human gastric cancer cells, read-out: IC50 (nM) SNU-16
[26] = Table 4, BALB/3T3 normal mouse fibroblasts, read-out: IC50 (nM) BALB3T3 normal cells

Row | SMILES | IC50 [1, 15] | PLC/PRF/5 SI [1] | IC50 [2] | A375 SI [2] | IC50 [3] | KG-1 SI [3] | IC50 [4, 16] | Hs294T SI [4] | IC50 [5, 17] | MIA PaCa-2 SI [5] | IC50 [6, 18] | SNU-16 SI [6] | SI A2780Cis [10] | IC50 ([10]; read-out: IC50 (nM) A2780Cis) | anti-proliferative effect compared to that of the parent compound [12] | IC50 [1, 22] | IC50 [4, 23] | IC50 [5, 24] | IC50 [6, 25] | IC50 [13] | other results
1 | CCCCCCCCNC(=O)N[C@@H]1C=C[C@]2(O[C@H]([C@@H](CC)C(=O)[C@@H](C)[C@@H](O)[C@H](C)[C@@H]3O[C@@H]([C@@H](CC)C(=O)O)CC[C@@H]3C)[C@@H](C)C[C@H]2C)O[C@@]12CC[C@@](C)([C@H]1CC[C@](O)(CC)[C@H](C)O1)O2 [FLC-00366-1] | 5.62 nM | 20.4 | 69.4 nM | 1.7 | 40.6 nM | 2.8 | 214 nM | 0.5 | 45 nM | 2.5 | 8.64 nM | 13.3 | 550.8 | 0.21 nM |  |  |  |  |  |  | IC50 [7, 19]: 115 nM; IC50 [7, 20]: 115 nM; IC50 [8]: 5.78 nM; NCI-H23 SI [8]: 19.8; IC50 [9]: 0.9 nM; A2780 SI [9]: 128.0; A2780Cis RI [10]: 0.2; A2780Cis SI [10]: 550.8; IC50 [10, 21]: 0.21 nM; IC50 [11]: 4.53 nM; PFSK-1 SI [11]: 25.3; biological properties (IC50, SI) compared to the corresponding epi compounds [12]: improved biological properties compared to their counterparts with a configuration conversion
2 | CC[C@@H](C(=O)[C@@H](C)[C@@H](O)[C@H](C)[C@@H]1O[C@@H]([C@@H](CC)C(=O)O)CC[C@@H]1C)[C@H]1O[C@]2(C=C[C@@H](NC(=O)Nc3ccccc3)[C@]3(CC[C@@](C)([C@H]4CC[C@](O)(CC)[C@H](C)O4)O3)O2)[C@H](C)C[C@@H]1C [FLC-00374-1] | 8.83 nM | 8.0 | 34.2 nM | 2.1 | 12.5 nM | 5.6 | 73.1 nM | 1.0 | 28.7 nM | 2.5 | 4.03 nM | 17.5 | 671.0 | 0.11 nM | several times more potent compared to that of the parent compound |  |  |  |  |  | IC50 [7, 19]: 70.5 nM; IC50 [7, 20]: 70.5 nM; IC50 [8]: 2.92 nM; NCI-H23 SI [8]: 24.1; IC50 [9]: 0.45 nM; A2780 SI [9]: 156.6; A2780Cis RI [10]: 0.2; A2780Cis SI [10]: 671.0; IC50 [10, 21]: 0.11 nM; IC50 [11]: 3.83 nM; PFSK-1 SI [11]: 18.4; biological properties (IC50, SI) compared to the corresponding epi compounds [12]: improved biological properties compared to their counterparts with a configuration conversion
3 | CCCOC(=O)N[C@@H]1C=C[C@]2(O[C@H]([C@@H](CC)C(=O)[C@@H](C)[C@@H](O)[C@H](C)[C@@H]3O[C@@H]([C@@H](CC)C(=O)O)CC[C@@H]3C)[C@@H](C)C[C@H]2C)O[C@@]12CC[C@@](C)([C@H]1CC[C@](O)(CC)[C@H](C)O1)O2 [FLC-00424-1•Na] |  |  |  |  |  |  |  |  |  |  |  |  |  |  | several times more potent compared to that of the parent compound | 5.01 nM | 685 nM | 38.4 nM | 220 nM | 48.7 nM | 
4 | CC[C@@H](C(=O)[C@@H](C)[C@@H](O)[C@H](C)[C@@H]1O[C@@H]([C@@H](CC)C(=O)O)CC[C@@H]1C)[C@H]1O[C@]2(C=C[C@@H](NC(=O)OCC(F)F)[C@]3(CC[C@@](C)([C@H]4CC[C@](O)(CC)[C@H](C)O4)O3)O2)[C@H](C)C[C@@H]1C [FLC-00446-1•Na] |  |  |  |  |  |  |  |  |  |  |  |  | 294.5 | 0.71 nM | several times more potent compared to that of the parent compound | 37.9 nM | 189 nM | 26.8 nM | 262 nM | 50.8 nM | SI PLC/PRF/5 ([1]; Table 4): 5.5; SI Hs294T ([4]; Table 4): 1.1; SI MIA PaCa-2 ([5]; Table 4): 7.8; SI SNU-16 ([6]; Table 4): 0.8; IC50 [7, 26]: 209 nM; SI NCI-H358 [13]: 4.12; SI MV4-11 [14]: 298.7; IC50 [14]: 0.7 nM
5 | CC[C@@H](C(=O)[C@@H](C)[C@@H](O)[C@H](C)[C@@H]1O[C@@H]([C@@H](CC)C(=O)O)CC[C@@H]1C)[C@H]1O[C@]2(C=C[C@@H](NC(=O)C(=O)NCCc3ccccc3)[C@]3(CC[C@@](C)([C@H]4CC[C@](O)(CC)[C@H](C)O4)O3)O2)[C@H](C)C[C@@H]1C [FLC-00457-1•Na] |  |  |  |  |  |  |  |  |  |  |  |  | 76.0 | 9.66 nM | several times more potent compared to that of the parent compound | 122 nM | 2530 nM | 53.7 nM | 551 nM | 446 nM | SI PLC/PRF/5 ([1]; Table 4): 6.0; SI Hs294T ([4]; Table 4): 0.3; SI MIA PaCa-2 ([5]; Table 4): 13.7; SI SNU-16 ([6]; Table 4): 1.3; IC50 [7, 26]: 734 nM; SI NCI-H358 [13]: 1.65; SI MV4-11 [14]: 40.7; IC50 [14]: 18 nM
